The values below come from patent US20150259295A1, “SUBSTITUTED PYRAZOLE COMPOUNDS AS LPAR ANTAGONISTS” (Hoffmann-La Roche Inc., priority 2012, published 2015).

Experiment [1] has as its target T1, LPA3R (Homo sapiens, UniProt Q9UBY5).
T1 sequence (Q9UBY5 1-353): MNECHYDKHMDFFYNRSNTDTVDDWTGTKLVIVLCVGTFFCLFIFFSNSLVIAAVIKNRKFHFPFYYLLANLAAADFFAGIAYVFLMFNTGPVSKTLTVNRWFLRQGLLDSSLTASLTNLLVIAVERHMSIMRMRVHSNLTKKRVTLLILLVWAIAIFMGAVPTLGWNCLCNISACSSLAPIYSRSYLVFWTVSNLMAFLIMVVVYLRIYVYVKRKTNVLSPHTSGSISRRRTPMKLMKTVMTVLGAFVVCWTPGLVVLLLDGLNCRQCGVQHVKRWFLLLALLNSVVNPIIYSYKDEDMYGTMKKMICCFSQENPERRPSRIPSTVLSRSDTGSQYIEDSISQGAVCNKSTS
The experiment in a line: LPA3R antagonist activity (Table 1, calcium flux FLIPR). Type of experiment: cell-based. As for the experimental part:
(§1) Calcium Flux Assay Using Fluorometric Imaging Plate Reader (FLIPR)
(§2) After incubation, both the cell and “assay” plates were brought to the FLIPR and 20 μL of the diluted compounds were transferred to the cell plates by the FLIPR. Compound addition was monitored by FLIPR to detect any agonist activity of the compounds. Plates were then incubated for 30 minutes at room temperature protected from light. After the incubation, plates were returned to the FLIPR and 20 μL of 4.5× concentrated agonist was added to the cell plates. During the assay, fluorescence readings were taken simultaneously from all 384 wells of the cell plate every 1.5 seconds. Five readings were taken to establish a stable baseline, then 20 μL of sample was rapidly (30 μL/sec) and simultaneously added to each well of the cell plate. The fluorescence was continuously monitored before, during and after sample addition for a total elapsed time of 100 seconds. Responses (increase in peak fluorescence) in each well following agonist addition was determined. The initial fluorescence reading from each well, prior to ligand stimulation, was used as zero baseline value for the data from that well. The responses were expressed as % inhibition of the buffer control.
(Calcium assays in cells follow changes in intracellular calcium, usually with a dye or a luminescent sensor.)

The target of experiment [2] is human recombinant LPA1 Lysophospholipid receptor (Homo sapiens, UniProt Q92633). The experiment in a line: Calcium flux assay using FLIPR, LPA1R antagonist activity. The following applies: for IC50: ChemiScreen calcium-optimized stable cell line, FLIPR calcium flux, antagonist mode. In kind it is cell-based. As for the experimental part: as §1
Chain of human recombinant LPA1 Lysophospholipid receptor (Q92633 whole entry): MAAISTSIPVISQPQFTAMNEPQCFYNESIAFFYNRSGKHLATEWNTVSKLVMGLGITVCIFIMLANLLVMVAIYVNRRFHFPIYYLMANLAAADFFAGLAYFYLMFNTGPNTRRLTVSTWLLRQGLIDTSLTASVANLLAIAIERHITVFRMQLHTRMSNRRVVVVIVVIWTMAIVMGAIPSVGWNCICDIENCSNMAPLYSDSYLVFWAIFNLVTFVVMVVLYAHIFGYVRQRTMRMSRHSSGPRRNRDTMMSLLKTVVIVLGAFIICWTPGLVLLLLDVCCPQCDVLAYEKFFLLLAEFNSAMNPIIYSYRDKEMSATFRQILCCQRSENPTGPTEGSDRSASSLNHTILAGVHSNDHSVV
Cell Culture Conditions: The ChemiScreen Calcium-optimized stable cell line containing the human recombinant LPA1 Lysophospholipid receptor was purchased from Chemicon International, Inc./Millipore. The cells were cultured in DMEM-high glucose supplemented with 10% fetal bovine serum, 2 mM glutamine, 100 U/mL penicillin/100 μg/mL streptomycin, 1× non-essential amino acids, 10 mM HEPES and 0.25 mg/mL Geneticin. Cells were harvested with trypsin-EDTA and counted using ViaCount reagent. The cell suspension volume was adjusted to 2.0×10^5 cells/mL with complete growth media. Aliquots of 50 μL were dispensed into 384 well black/clear tissue culture treated plates (BD) and the microplates were placed in a 37° C. incubator overnight. The following day plates were used in the assay.
Dye Loading and Assay: Loading Buffer (FLIPR Calcium-4, Molecular Devices) was prepared by dissolving the contents of one bottle into 100 mL Hank's Balanced Salt Solution containing 20 mM HEPES and 2.5 mM probenecid. Plates were loaded onto Biotek plate washer and growth media was removed and replaced with 20 µL of Hank's Balanced Salt Solution containing 20 mM HEPES and 2.5 mM probenecid, followed by 25 μL of Loading Buffer. The plates were then incubated for 30 minutes at 37° C.
During the incubation, test compounds were prepared by adding 90 μL of HBSS/20 mM HEPES/0.1% BSA buffer to 2 μL of serially diluted compounds. To prepare serial dilutions, 10 mM stocks of compounds were prepared in 100% DMSO. The compound dilution plate was set up as follows: well #1 received 29 μL of stock compound and 31 μL DMSO; wells 2-10 received 40 μL of DMSO; mixed and transferred 20 μL of solution from well #1 into well #2; continued with 1:3 serial dilutions out 10 steps; transferred 2 μL of diluted compound into duplicate wells of 384 well “assay plate” and then added the 90 μL of buffer.
as §2

SMILES strings stand for the structures. Where only a bound is given, the exact number is not on record here.

As to `C[C@@H](CC(=O)Nc1c(-c2ccc(-c3ccc(C4(C(=O)O)CC4)cc3)cc2)cnn1C)c1ccccc1` [Example 25, 1-{4′-[1-Methyl-5-((S)-3-phenyl-butyrylamino)-1H-pyrazol-4-yl]-biphenyl-4-yl}-cyclopropanecarboxylic acid], the IC50 – broadly, the concentration that inhibits the measured activity by half – in experiment [1] is above 30 µM. Besides, in experiment [2], the inhibition – broadly, the drop in the measured response relative to a control, in per cent – at 30 µM turned out to be 85.5% and the IC50 stood at 0.88 µM.
Regarding `C[C@H](OC(=O)Nc1c(-c2ccccc2F)cnn1C)c1ccccc1Cl` [Example 22, [4-(2-Fluoro-phenyl)-2-methyl-2H-pyrazol-3-yl]-carbamic acid (S)-1-(2-chloro-phenyl)-ethyl ester], the half-maximal inhibitory concentration (IC50) in experiment [1] and in experiment [2] was above 30 µM throughout.
Turning to `CC(OC(=O)Nc1c(-c2ccc(-c3ccc(C4(C(=O)O)CC4)cc3)cc2)cnn1C)c1ccc(F)cc1` (stereo not drawn) [Example 18, 1-{4′-[5-((1-(4-fluorophenyl)ethoxy)carbonylamino)-1-methyl-1H-pyrazol-4-yl]-biphenyl-4-yl}-cyclopropanecarboxylic acid], the IC50 amounted to 8.26 µM in experiment [1] and 0.057 µM in experiment [2].
For the compound `Cn1ncc(-c2ccc(-c3ccc(C4(C(=O)O)CC4)cc3)cc2)c1NC(=O)NCc1ccccc1` [Example 24, 1-{4′-[5-(3-Benzyl-ureido)-1-methyl-1H-pyrazol-4-yl]-biphenyl-4-yl}-cyclopropanecarboxylic acid], the IC50 in experiment [1] was above 30 µM; in experiment [2], 0.58 µM. The inhibition at 10 µM in experiment [2] (@ 10 μM) worked out at 82.8%.
Take `CC(OC(=O)Nc1c(-c2ccc(F)cc2)cnn1C)c1ccccc1Cl` (stereo not drawn) [Example 11, [4-(4-Fluoro-phenyl)-2-methyl-2H-pyrazol-3-yl]-carbamic acid 1-(2-chloro-phenyl)-ethyl ester]: the 50% inhibitory concentration (IC50) in experiment [2] came to 3.93 µM.
As to `C[C@@H](OC(=O)Nc1c(-c2ccccc2F)cnn1C)c1ccccc1Cl` [Example 21, [4-(2-Fluoro-phenyl)-2-methyl-2H-pyrazol-3-yl]-carbamic acid (R)-1-(2-chloro-phenyl)-ethyl ester], the results for the IC50 in experiment [1] and in experiment [2] were above 30 µM and 0.644 µM, respectively. Also, in experiment [2], the inhibition at 30 µM turned out to be 97.2%.
In the same order, the values of `CC(OC(=O)Nc1c(-c2ccccc2F)cnn1C)c1cccc(C(F)(F)F)c1` (racemic) [Example 12, [4-(2-Fluoro-phenyl)-2-methyl-2H-pyrazol-3-yl]-carbamic acid 1-(3-trifluoromethyl-phenyl)-ethyl ester] are above 30 µM, 24.6 µM and 50.5%.
As for `CC(OC(=O)Nc1c(-c2ccc(-c3ccc(C4(C(=O)O)CC4)cc3)cc2)cnn1C)c1ccccc1Cl` (stereo not drawn) [Example 6, 1-(4′-{5-[1-(2-Chloro-phenyl)-ethoxycarbonylamino]-1-methyl-1H-pyrazol-4-yl}-biphenyl-4-yl)-cyclopropanecarboxylic acid], the IC50 in experiment [1] is 2.47 µM; in experiment [2], 0.112 µM.
In the case of `CC(C)[C@@H](C)OC(=O)Nc1c(-c2ccc(-c3ccc(C4(C(=O)O)CC4)cc3)cc2)cnn1C` [Example 15, (R)-1-{4′-[5-(1,2-Dimethyl-propoxycarbonylamino)-1-methyl-1H-pyrazol-4-yl]-biphenyl-4-yl}-cyclopropanecarboxylic acid], the IC50 was above 30 µM in experiment [1] and 0.107 µM in experiment [2].
For the compound `C[C@@H](OC(=O)Nc1c(-c2ccc(CC(=O)O)cc2)cnn1C)c1ccccc1` [Example 10, {4-[1-Methyl-5-((R)-1-phenyl-ethoxycarbonylamino)-1H-pyrazol-4-yl]-phenyl}-acetic acid], the half-inhibitory concentration (IC50) in experiment [1] and in experiment [2] was above 30 µM each time.
As to `C[C@@H](OC(=O)Nc1c(-c2ccc(-c3ccccc3)cc2)cnn1C)c1ccccc1` [Example 7, (4-Biphenyl-4-yl-2-methyl-2H-pyrazol-3-yl)-carbamic acid (R)-1-phenyl-ethyl ester], the IC50 in experiment [1] and in experiment [2] was above 30 µM in each case.
As to `COc1ccc(-c2cnn(C)c2NC(=O)O[C@H](C)c2ccccc2)cc1` [Example 8, [4-(4-Methoxy-phenyl)-2-methyl-2H-pyrazol-3-yl]-carbamic acid (R)-1-phenyl-ethyl ester], the IC50 in experiment [1] and in experiment [2] was above 30 µM each time.
For the compound `CCOC(=O)C1(c2ccc(-c3ccc(-c4cnn(C)c4NC(=O)O[C@H](C)c4ccccc4)cc3)cc2)CC1` [Example 4, 1-{4′-[1-Methyl-5-((R)-1-phenyl-ethoxycarbonylamino)-1H-pyrazol-4-yl]-biphenyl-4-yl}-cyclopropanecarboxylic acid ethyl ester], the IC50 in experiment [1] is above 30 µM. In experiment [2], the inhibition at 30 µM came out at 65.9% and the IC50 amounted to 1.59 µM.
In the case of `C[C@@H](OC(=O)Nc1c(-c2ccc(-c3ccc(C4(C(=O)O)CC4)cc3)cc2)cnn1C)c1ccccc1` [Example 5, 1-{4′-[1-Methyl-5-((R)-1-phenyl-ethoxycarbonylamino)-1H-pyrazol-4-yl]-biphenyl-4-yl}-cyclopropanecarboxylic acid], the IC50 in experiment [1] was found to be 8.35 µM; in experiment [2], 0.02 µM.
`C[C@@H](OC(=O)Nc1c(-c2ccc(C3(C(=O)O)CC3)cc2)cnn1C)c1ccccc1` [Example 9, 1-{4-[1-Methyl-5-((R)-1-phenyl-ethoxycarbonylamino)-1H-pyrazol-4-yl]-phenyl}-cyclopropanecarboxylic acid]: the IC50 in experiment [1] and in experiment [2] was above 30 µM in each case.
Turning to `CC[C@@H](C)OC(=O)Nc1c(-c2ccc(-c3ccc(C4(C(=O)O)CC4)cc3)cc2)cnn1C` [Example 14, (R)-1-{4′-[5-(sec-Butoxycarbonylamino)-1-methyl-1H-pyrazol-4-yl]-biphenyl-4-yl}-cyclopropanecarboxylic acid], the IC50 in experiment [1] was above 30 µM; in experiment [2] it was 0.038 µM.
In the case of `C[C@@H](OC(=O)Nc1c(-c2ccc(-c3ccc(C4(C(=O)O)CC4)cc3)cc2)cnn1C)c1cccc(C(F)(F)F)c1` [Example 17, (R)-1-{4′-[1-Methyl-5-((1-(3-(trifluoromethyl)phenyl)ethoxy)carbonylamino)-1H-pyrazol-4-yl]-biphenyl-4-yl}-cyclopropanecarboxylic acid], the IC50 in experiment [1] is 0.478 µM; in experiment [2], 0.042 µM.
With `C[C@@H](OC(=O)Nc1c(-c2ccccc2F)cnn1C)c1cccc(C(F)(F)F)c1` [Example 23, [4-(2-Fluoro-phenyl)-2-methyl-2H-pyrazol-3-yl]-carbamic acid (R)-1-(3-trifluoromethyl-phenyl)-ethyl ester], the IC50 in experiment [1] and in experiment [2] was above 30 µM each time.
As to `C[C@@H](OC(=O)Nc1c(-c2ccc(-c3ccc(C4(C(=O)O)CC4)cc3)cc2)cnn1C)c1ccccc1F` [Example 16, (R)-1-{4′-[5-((1-(2-Fluorophenyl)ethoxy)carbonylamino)-1-methyl-1H-pyrazol-4-yl]-biphenyl-4-yl}-cyclopropanecarboxylic acid], the IC50 was 5.8 µM in experiment [1] and 0.024 µM in experiment [2].
As for `Cn1ncc(-c2ccc(-c3ccc(C4(C(=O)O)CC4)cc3)cc2)c1NC(=O)OC1CCC1` [Example 19, 1-{4′-[5-(cyclobutoxycarbonylamino)-1-methyl-1H-pyrazol-4-yl]-biphenyl-4-yl}-cyclopropanecarboxylic acid], the figures for the IC50 in experiment [1] and in experiment [2] were above 30 µM and 0.176 µM, respectively.
Regarding `CC(OC(=O)Nc1c(-c2ccccc2)cnn1C)c1ccccc1Cl` (stereo not drawn) [Example 3, (2-Methyl-4-phenyl-2H-pyrazol-3-yl)-carbamic acid 1-(2-chloro-phenyl)-ethyl ester], the IC50 in experiment [2] came out at 3.59 µM.
